Assay results reported in patent US12121026B1, “N-[(1-phenyl-4H-1,2,4-triazol-3-yl) carbamothioyl]benzamide as an eco-friendly insecticidal agent against spodoptera littoralis” (KING FAISAL UNIVERSITY, priority 2023, dated 2024).
Converted amounts (≈) assume the structure as drawn. Where two headings read alike, the source gives them in different places.

Tested on: second and fourth instars larvae of the laboratory strain of cotton leafworm, S. littoralis
Assay: Insecticidal bioassay screening (castor leaf dip)
Format: in vivo
Conditions: for Toxicity index %: 72 hrs, Diflubenzuron's LC50/compound's LC50 x100; for LC90 (mg/L) at 95%: after 72 hrs of treatment; for LC50: Spodoptera littoralis, foliar
Description: Five concentrations (200, 100, 50, 25, 12.5 ppm) were designed for this synthetic compound and the reference Diflubenzuron compound as the dynamic ingredients based on ppm via diluting the commercial formulation.
In this experiment, castor leaves are immersed in each of the previously prepared concentrations of the components for 10 seconds and then left to dry for 60 minutes. Larvae of the second and fourth instars of each checked strain are prepared with treated leaves in gauze-covered glass containers for 72 hrs. An untreated control is made in which leaves are dipped in triton x-100 and distilled water only. Then the preserved leaves were removed & fresh, untreated leaves were provided for 72 hours. Three replicates (10 larvae each) were checked for each concentration. Daily inspection was carried out for all treatments and mortality percentages were recorded 3 days (72 hours) after treatment. The average mortality percentage was corrected employing Abbott's formula. The corrected mortality rate for each of the previously synthesized compounds is statistically calculated according to Finney (1970). Through this rate, the corresponding concentration test lines (LDP lines) are assessed.

[1] = 72 h, read-out: LC50 (mg/L) at 95%, 2nd instar larvae, after 72 hrs of treatment
[2] = 72 h, read-out: LC50 (mg/L) at 95%, 4th instar larvae, after 72 hrs of treatment
[3] = against Spodoptera littoralis under laboratory conditions, instar not stated

## O=C(NC(=S)Nc1ncn(-c2ccccc2)n1)c1ccccc1 [Compound 1, N-[(1-phenyl-1H-1,2,4-triazol-3-yl)carbamothioyl]benzamide]
2nd instar larvae
  Toxicity index %: 22.8%
  LC90 (mg/L) at 95%: 1733.6 mg/L (≈ 5360 µM)
2nd instar larvae, listed as N-[(1-phenyl-4H-1,2,4-triazol-3-yl)carbamothioyl]benzamide
  LC90 (mg/L) at 95%: about 1733.6 mg/L
4th instar larvae
  Toxicity index %: 36.7%
  LC90 (mg/L) at 95%: 4090.2 mg/L (≈ 12600 µM)
4th instar larvae, listed as N-[(1-phenyl-4H-1,2,4-triazol-3-yl)carbamothioyl]benzamide
  LC90 (mg/L) at 95%: about 4090.2 mg/L
[1]
  LC50: ~198 mg/L (≈ 613 µM)
[2]
  LC50: ~392 mg/L (≈ 1210 µM)
[3]
  LC50: 198 mg/L (≈ 613 µM)

## O=C(NC(=O)c1c(F)cccc1F)Nc1ccc(Cl)cc1 [Diflubenzuron, reference compound]
2nd instar larvae
  Toxicity index %: 100%
  LC90 (mg/L) at 95%: 520.0 mg/L (≈ 1670 µM)
4th instar larvae
  Toxicity index %: 100%
  LC90 (mg/L) at 95%: 1540.5 mg/L (≈ 4960 µM)
[1]
  LC50: 45.2 mg/L (≈ 145 µM)
[2]
  LC50: 144 mg/L (≈ 464 µM)
[3]
  LC50: 45.2 mg/L (≈ 145 µM)
